Data: the supplement of paper PMC10307832

How the values were obtained:
Test in all cases: relative viability (nuclei count vs DMSO), 5 days (fraction); higher = more cells survive
[1] = compound: CC(O)(CS(=O)(=O)c1ccc(F)cc1)C(=O)Nc1ccc(C#N)c(C(F)(F)F)c1 [Bicalutamide] + C[C@]1(O)C[C@@H](c2nc(-c3ccc4ccc(-c5ccccc5)nc4c3)c3c(N)nccn32)C1 [Linsitinib] (partner 1 µM)
Method in brief: (§1)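 The day after seeding in 1536-well plates, lung cancer cell lines were treated by pin tool with a single drug, or with a fixed anchor-drug dose together with five library-drug doses (not always all listed) in √10 steps. After 5 days, a combined fix-and-stain solution (final 0.05% Triton X-100, 1% formaldehyde, 1 ug/ml Hoechst) was added. Nuclei counted on 4× images gave relative viability as treated counts over vehicle counts, reported as the median of duplicate plates.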

[2] = compound: C(C(=O)C(=O)O)Br [Bromopyruvate] + CC1(C)CCC(c2ccc(Cl)cc2)=C(CN2CCN(c3ccc(C(=O)NS(=O)(=O)c4ccc(N[C@H](CCN5CCOCC5)CSc5ccccc5)c(S(=O)(=O)C(F)(F)F)c4)cc3)CC2)C1 [Navitoclax] (partner 0.5 µM)
Method in brief: as §1

[3] = compound: C(C(=O)C(=O)O)Br [Bromopyruvate] + CC(=O)c1c(C)c2cnc(Nc3ccc(N4CCNCC4)cn3)nc2n(C2CCCC2)c1=O [Palbociclib] (partner 0.5 µM)
Method in brief: as §1

[4] = compound: CC(O)(CS(=O)(=O)c1ccc(F)cc1)C(=O)Nc1ccc(C#N)c(C(F)(F)F)c1 [Bicalutamide] + C[C@@H](Oc1cc(-c2cnn(C3CCNCC3)c2)cnc1N)c1c(Cl)ccc(F)c1Cl [Crizotinib] (partner 1 µM)
Method in brief: as §1

Cell Line | relative viability ([1]; first compound 0.08 µM) | relative viability ([1]; first compound 0.253 µM) | relative viability ([1]; first compound 0.8 µM) | relative viability ([1]; first compound 2.53 µM) | relative viability ([2]; first compound 1 µM) | relative viability ([2]; first compound 3.162 µM) | relative viability ([2]; first compound 10 µM) | relative viability ([2]; first compound 31.62 µM) | relative viability ([2]; first compound 100 µM) | relative viability ([3]; first compound 1 µM) | relative viability ([3]; first compound 3.162 µM) | relative viability ([3]; first compound 10 µM) | relative viability ([3]; first compound 31.62 µM) | relative viability ([3]; first compound 100 µM) | relative viability ([4]; first compound 0.08 µM) | relative viability ([4]; first compound 0.253 µM) | relative viability ([4]; first compound 0.8 µM) | relative viability ([4]; first compound 2.53 µM)
201T | 1.04 | 1.02 | 1.07 | 1.04 | 1.28 | 1.15 | 1.18 | 1.2 | 1.19 | 0.341 | 0.348 | 0.344 | 0.35 | 0.382 | 1.04 | 0.942 | 1.01 | 1.06
A549 | 0.567 | 0.531 | 0.696 | 0.527 | 1.23 | 1.22 | 1.36 | 1.22 | 1.33 |  |  |  |  |  | 0.738 | 0.708 | 0.917 | 0.485
A-427 | 1.16 | 1.15 | 1.21 | 1.18 | 0.967 | 0.876 | 0.895 | 1.02 | 1.04 | 0.51 | 0.552 | 0.551 | 0.536 | 0.497 | 0.934 | 0.967 | 0.915 | 0.804
ABC-1 | 0.912 | 0.889 | 0.768 | 0.861 |  |  |  |  |  | 0.662 |  |  |  | 0.792 | 1.15 | 1.09 | 1.16 | 0.848
BEN | 1.04 | 0.802 | 1.26 | 0.966 | 0.0705 | 0.0702 | 0.072 | 0.0664 | 0.0566 | 0.457 | 0.449 | 0.505 | 0.497 | 0.486 | 0.773 | 0.778 | 1.14 | 0.866
CAL-12T | 0.69 | 0.777 | 1.04 | 0.814 | 1.06 | 1.23 | 1.34 | 1.34 | 1.08 | 0.429 | 0.444 | 0.552 | 0.395 | 0.285 | 0.785 | 0.556 | 0.67 | 0.396
COR-L23 | 0.997 | 0.919 | 1.16 | 0.732 | 0.77 | 1.05 | 1.12 | 0.851 | 0.401 | 0.239 | 0.283 | 0.232 | 0.255 | 0.178 | 0.678 | 0.552 | 0.703 | 0.449
COR-L 105 | 0.941 | 0.93 | 0.899 | 0.815 | 0.757 | 0.962 | 0.689 | 0.688 | 0.549 | 0.404 | 0.396 | 0.415 | 0.374 | 0.429 | 0.874 | 0.728 | 0.661 | 0.448
Calu-6 | 0.972 | 0.999 | 1.12 | 0.98 | 0.939 | 0.922 | 0.779 | 0.792 | 0.74 |  |  |  |  |  | 0.865 | 0.795 | 0.914 | 0.727
ChaGo-K-1 |  |  |  |  | 1.17 | 0.99 | 0.963 | 0.96 | 0.879 | 0.93 | 0.947 | 0.979 | 0.87 | 0.876 | 1.27 | 1.1 | 1.16 | 1.03
